Reference: PubChem BioAssay (NCI)
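Assay format: 96-well plates, 48-hour exposure. Here, GI50 denotes the concentration required for 50% inhibition of growth. TGI denotes the concentration required for complete inhibition of growth.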

Legend:
Assay in all cases: NCI-60 cell line screen, 48 h
DMS 273 small cell lung = tested on: DMS 273 small cell lung
RPMI-8226 leukemia = tested on: RPMI-8226 leukemia
MALME-3M melanoma = tested on: MALME-3M melanoma
KM20L2 colon = tested on: KM20L2 colon
M19-MEL melanoma = tested on: M19-MEL melanoma
HCT-15 colon = tested on: HCT-15 colon
M14 melanoma = tested on: M14 melanoma
DMS 114 small cell lung = tested on: DMS 114 small cell lung

Compound | GI50 (DMS 273 small cell lung) | TGI (DMS 273 small cell lung) | GI50 (RPMI-8226 leukemia) | TGI (RPMI-8226 leukemia) | GI50 (MALME-3M melanoma) | TGI (MALME-3M melanoma) | GI50 (KM20L2 colon) | TGI (KM20L2 colon) | GI50 (M19-MEL melanoma) | TGI (M19-MEL melanoma) | GI50 (HCT-15 colon) | TGI (HCT-15 colon) | GI50 (M14 melanoma) | TGI (M14 melanoma) | TGI (DMS 114 small cell lung) | GI50 (DMS 114 small cell lung)
CCC[CH2][Sn]1([CH2]CCC)[O]C(c2ccccn2)S(=O)(=O)[O]1 (stereo unspecified) | 3.29 µM | 15.5 µM | 2.23 µM | 6.46 µM | 1.63 µM | 3.27 µM | 6.65 µM | 20.2 µM | 4.1 µM | 14.4 µM | 1.79 µM | 3.5 µM | 3.57 µM | 11.2 µM | – | –
OCCN1CCN(CCO)Cc2ccccc2OCCOc2ccccc2C1 | – | > 100 µM | – | > 100 µM | – | > 100 µM | – | > 100 µM | – | > 100 µM | – | > 100 µM | – | > 100 µM | > 100 µM | –
CC1=CC(=O)C(C)(C2=NC(C)(C)CO2)c2ccccc21 (stereo unspecified) | – | – | – | > 100 µM | – | > 100 µM | – | > 100 µM | – | > 100 µM | – | > 100 µM | – | > 100 µM | > 100 µM | –
CCN1C(C)=NC2C(=O)c3ccccc3C(=O)C21 (stereo unspecified) | – | > 100 µM | – | > 100 µM | – | > 100 µM | – | 68.2 µM | – | > 100 µM | – | > 100 µM | – | > 100 µM | > 100 µM | –
CC1(C)CC23C(=O)N(c4ccccc4)C(=Nc4ccccc4)NC2=CC(C#N)=C(C#N)C3O1 (stereo unspecified) | – | – | – | > 100 µM | – | > 100 µM | – | > 100 µM | – | > 100 µM | – | > 100 µM | – | > 100 µM | > 100 µM | –
COc1cccc(/C=C(/C(=O)O)c2cc(OC)c(OC)c(OC)c2)c1 | – | > 100 µM | – | > 100 µM | – | > 100 µM | – | > 100 µM | – | > 100 µM | – | > 100 µM | – | > 100 µM | > 100 µM | –
CC(C#N)c1cn(S(=O)(=O)c2ccccc2)c2ccccc12 (stereo unspecified) | – | > 100 µM | – | > 100 µM | – | > 100 µM | – | > 100 µM | – | > 100 µM | – | > 100 µM | – | > 100 µM | > 100 µM | –
C/C(CC(=O)CCCC(=O)Nc1ccc(Cl)cc1Cl)=N/NC(=O)CC#N | – | > 100 µM | – | > 100 µM | – | > 100 µM | – | > 100 µM | – | > 100 µM | – | > 100 µM | – | > 100 µM | > 100 µM | –
C/C(=N\O)c1sc(-n2nc(-c3ccccc3)cc2-c2ccccc2)nc1C | – | 49.6 µM | – | 23.6 µM | – | 31 µM | – | 16.1 µM | – | 20.8 µM | – | 22.9 µM | – | 18.3 µM | 22.8 µM | –
CC[O-].CC[O-].[O-]c1ccccc1C=Nc1ccccc1.[O-]c1ccccc1C=Nc1ccccc1.[Ti+4] | 21 µM | > 100 µM | > 100 µM | > 100 µM | > 100 µM | > 100 µM | 23.7 µM | > 100 µM | > 100 µM | > 100 µM | – | – | > 100 µM | > 100 µM | > 100 µM | 75.2 µM
CC(=O)[CH-]C(=O)c1ccccc1.CC(=O)[CH-]C(=O)c1ccccc1.O=C([O-])C[O-].O=C([O-])C[O-].[Ti+4] | – | – | 49.9 µM | > 100 µM | 34.3 µM | > 100 µM | 43.8 µM | > 100 µM | – | > 100 µM | 30.9 µM | > 100 µM | 34.7 µM | > 100 µM | – | –
